{"source": "patent US6358885B1", "about": "“Substituted phenylheterocyclic herbicides” (Mississippi State University, priority 1992, dated 2002)", "key": {"chickweed": {"system": "chickweed", "assay": "Test B preemergence/postemergence greenhouse plant response rating 0 to 10", "format": "in vivo, Stellaria media", "settings": "for Plant response rating, Chickweed: 0 to 10 scale", "method_in_brief": "(§1)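 Test chemicals were sprayed onto freshly planted seed and, concurrently, onto young plants between the one and four leaf stage. After a twelve- to sixteen-day greenhouse period, each species was visually compared with untreated controls.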"}, "barnyardgrass": {"system": "barnyardgrass", "assay": "Test B preemergence/postemergence greenhouse plant response rating 0 to 10", "format": "in vivo, Echinochloa crus-galli", "settings": "for Plant response rating, Barnyardgrass: 0 to 10 scale", "method_in_brief": "as §1"}, "ryegrass": {"system": "ryegrass", "assay": "Test C preemergence/postemergence greenhouse plant response rating 0 to 100", "format": "in vivo, Lolium multiflorum", "settings": "for Plant response rating Ryegrass: 125 g/ha, 0 to 100 scale", "method_in_brief": "(§2)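 Compounds in non-phytotoxic solvent went onto sandy loam before emergence (seeded one day earlier) or onto plants at the one-to-four leaf stage. Duck salad was treated via flood water (~2.5 cm, maintained) over silt loam.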"}, "umbrella sedge": {"system": "umbrella sedge", "assay": "Test C flood test plant response rating 0 to 100", "format": "in vivo, Cyperus difformis", "method_in_brief": "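Compounds in non-phytotoxic solvent applied preemergence to sandy loam one day after planting, postemergence at the 1–4 leaf stage, or to ~2.5 cm floodwater over silt loam.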"}, "sugar beet": {"system": "sugar beet", "assay": "Test C preemergence/postemergence greenhouse plant response rating 0 to 100", "format": "in vivo, Beta vulgaris", "settings": "for Plant response rating, Sugar beet: 125 g/ha, 0 to 100 scale", "method_in_brief": "as §2"}, "wild buckwheat": {"system": "wild buckwheat", "assay": "Test B preemergence/postemergence greenhouse plant response rating 0 to 10", "format": "in vivo, Polygonum convolvulus", "settings": "for Plant response rating, Wild buckwheat: 0 to 10 scale", "method_in_brief": "as §1"}, "crabgrass": {"system": "crabgrass", "assay": "Test C preemergence/postemergence greenhouse plant response rating 0 to 100", "format": "in vivo, Digitaria sanguinalis", "settings": "for Plant response rating, Crabgrass: 125 g/ha, 0 to 100 scale", "method_in_brief": "as §2"}, "bedstraw": {"system": "bedstraw", "assay": "Test C preemergence/postemergence greenhouse plant response rating 0 to 100", "format": "in vivo, Galium aparine", "settings": "for Plant response rating, Bedstraw: 125 g/ha, 0 to 100 scale", "method_in_brief": "as §2"}, "wild oat": {"system": "wild oat", "assay": "Test C preemergence/postemergence greenhouse plant response rating 0 to 100", "format": "in vivo, Avena fatua", "settings": "for Plant response rating, Wild oat: 125 g/ha, 0 to 100 scale", "method_in_brief": "as §2"}, "rape": {"system": "rape", "assay": "Test B preemergence/postemergence greenhouse plant response rating 0 to 10", "format": "in vivo, Brassica napus", "settings": "for Plant response rating, Rape: 0 to 10 scale", "method_in_brief": "as §1"}, "downy brome": {"system": "downy brome", "assay": "Test C preemergence/postemergence greenhouse plant response rating 0 to 100", "format": "in vivo, Bromus tectorum", "settings": "for Plant response rating Downy Brome: 125 g/ha, 0 to 100 scale", "method_in_brief": "as §2"}, "corn": {"system": "corn", "assay": "Test C preemergence/postemergence greenhouse plant response rating 0 to 100", "format": "in vivo, Zea mays", "settings": "for Plant response rating, Corn: 125 g/ha, 0 to 100 scale", "method_in_brief": "as §2"}}}
{"smiles": "COCOc1cc(-c2nn3c(c2Cl)CCCC3)c(F)cc1Cl", "note": "[Compound 58]", "values": [{"measurement": "Plant response rating, Chickweed", "setting": "chickweed; POSTEMERGENCE, Rate 50 g/ha", "value": 9}, {"measurement": "Plant response rating, Chickweed", "setting": "chickweed; PREEMERGENCE, Rate 50 g/ha", "value": 10}, {"measurement": "Plant response rating (0 to 10 scale), Chickweed", "setting": "chickweed; PREEMERGENCE, Rate 200 g/ha", "value": 10}, {"measurement": "Plant response rating, Chickweed", "setting": "chickweed; Rate 200 g/ha, POSTEMERGENCE", "value": 10}, {"measurement": "Plant response rating, Barnyardgrass", "setting": "barnyardgrass; POSTEMERGENCE, Rate 50 g/ha", "value": 6}, {"measurement": "Plant response rating, Barnyardgrass", "setting": "barnyardgrass; PREEMERGENCE, Rate 50 g/ha", "value": 4}, {"measurement": "Plant response rating (0 to 10 scale), Barnyardgrass", "setting": "barnyardgrass; PREEMERGENCE, Rate 200 g/ha", "value": 7}, {"measurement": "Plant response rating, Barnyardgrass", "setting": "barnyardgrass; Rate 200 g/ha, POSTEMERGENCE", "value": 9}, {"measurement": "Plant response rating Ryegrass", "setting": "ryegrass; POSTEMERGENCE", "value": 85}, {"measurement": "Plant response rating (0 to 100), Ryegrass", "setting": "ryegrass; POSTEMERGENCE, Rate 2 g/ha", "value": 10}, {"measurement": "Plant response rating Ryegrass", "setting": "ryegrass; PREEMERGENCE", "value": 100}, {"measurement": "Plant response rating (0 to 100), Ryegrass", "setting": "ryegrass; PREEMERGENCE, Rate 2 g/ha", "value": 0}, {"measurement": "Plant response rating (0 to 100), Ryegrass", "setting": "ryegrass; Rate 8 g/ha, POSTEMERGENCE", "value": 30}, {"measurement": "Plant response rating (0 to 100), Ryegrass", "setting": "ryegrass; Rate 8 g/ha, PREEMERGENCE", "value": 0}, {"measurement": "Plant response rating (0 to 100), Ryegrass", "setting": "ryegrass; Rate 31 g/ha, POSTEMERGENCE", "value": 60}, {"measurement": "Plant response rating (0 to 100), Ryegrass", "setting": "ryegrass; Rate 31 g/ha, PREEMERGENCE", "value": 50}, {"measurement": "Plant response rating (0 to 100), Umbrella sedge", "setting": "umbrella sedge; POSTEMERGENCE section, flood test, Rate 2 g/ha", "value": 25}, {"measurement": "Plant response rating (0 to 100), Umbrella sedge", "setting": "umbrella sedge; Rate 8 g/ha, under POSTEMERGENCE head (flood test species)", "value": 30}, {"measurement": "Plant response rating (0 to 100), Umbrella sedge", "setting": "umbrella sedge; Rate 31 g/ha, under POSTEMERGENCE head (flood test species)", "value": 70}, {"measurement": "Plant response rating Umbrella sedge", "setting": "umbrella sedge; flood test species listed under POSTEMERGENCE, 125 g/ha, 0 to 100 scale", "value": 100}, {"measurement": "Plant response rating, Sugar beet", "setting": "sugar beet; POSTEMERGENCE", "value": 100}, {"measurement": "Plant response rating (0 to 100), Sugar beet", "setting": "sugar beet; POSTEMERGENCE, Rate 2 g/ha", "value": 100}, {"measurement": "Plant response rating, Sugar beet", "setting": "sugar beet; PREEMERGENCE", "value": 100}, {"measurement": "Plant response rating (0 to 100), Sugar beet", "setting": "sugar beet; PREEMERGENCE, Rate 2 g/ha", "value": 10}, {"measurement": "Plant response rating (0 to 100), Sugar beet", "setting": "sugar beet; Rate 8 g/ha, POSTEMERGENCE", "value": 100}, {"measurement": "Plant response rating (0 to 100), Sugar beet", "setting": "sugar beet; Rate 8 g/ha, PREEMERGENCE", "value": 85}, {"measurement": "Plant response rating (0 to 100), Sugar beet", "setting": "sugar beet; Rate 31 g/ha, POSTEMERGENCE", "value": 100}, {"measurement": "Plant response rating (0 to 100), Sugar beet", "setting": "sugar beet; Rate 31 g/ha, PREEMERGENCE", "value": 90}, {"measurement": "Plant response rating, Wild buckwheat", "setting": "wild buckwheat; POSTEMERGENCE, Rate 50 g/ha", "value": 10}, {"measurement": "Plant response rating, Wild buckwheat", "setting": "wild buckwheat; PREEMERGENCE, Rate 50 g/ha", "value": 9}, {"measurement": "Plant response rating (0 to 10 scale), Wild buckwheat", "setting": "wild buckwheat; PREEMERGENCE, Rate 200 g/ha", "value": 10}, {"measurement": "Plant response rating, Wild buckwheat", "setting": "wild buckwheat; Rate 200 g/ha, POSTEMERGENCE", "value": 10}, {"measurement": "Plant response rating, Crabgrass", "setting": "crabgrass; POSTEMERGENCE", "value": 70}, {"measurement": "Plant response rating (0 to 100), Crabgrass", "setting": "crabgrass; POSTEMERGENCE, Rate 2 g/ha", "value": 20}, {"measurement": "Plant response rating, Crabgrass", "setting": "crabgrass; PREEMERGENCE", "value": 100}, {"measurement": "Plant response rating (0 to 100), Crabgrass", "setting": "crabgrass; PREEMERGENCE, Rate 2 g/ha", "value": 0}, {"measurement": "Plant response rating (0 to 100), Crabgrass", "setting": "crabgrass; Rate 8 g/ha, POSTEMERGENCE", "value": 30}, {"measurement": "Plant response rating (0 to 100), Crabgrass", "setting": "crabgrass; Rate 8 g/ha, PREEMERGENCE", "value": 0}, {"measurement": "Plant response rating (0 to 100), Crabgrass", "setting": "crabgrass; Rate 31 g/ha, POSTEMERGENCE", "value": 60}, {"measurement": "Plant response rating (0 to 100), Crabgrass", "setting": "crabgrass; Rate 31 g/ha, PREEMERGENCE", "value": 50}, {"measurement": "Plant response rating, Bedstraw", "setting": "bedstraw; POSTEMERGENCE", "value": 100}, {"measurement": "Plant response rating (0 to 100), Bedstraw", "setting": "bedstraw; POSTEMERGENCE, Rate 2 g/ha", "value": 60}, {"measurement": "Plant response rating, Bedstraw", "setting": "bedstraw; PREEMERGENCE", "value": 70}, {"measurement": "Plant response rating (0 to 100), Bedstraw", "setting": "bedstraw; PREEMERGENCE, Rate 2 g/ha", "value": 0}, {"measurement": "Plant response rating (0 to 100), Bedstraw", "setting": "bedstraw; Rate 8 g/ha, POSTEMERGENCE", "value": 100}, {"measurement": "Plant response rating (0 to 100), Bedstraw", "setting": "bedstraw; Rate 8 g/ha, PREEMERGENCE", "value": 10}, {"measurement": "Plant response rating (0 to 100), Bedstraw", "setting": "bedstraw; Rate 31 g/ha, PREEMERGENCE", "value": 50}, {"measurement": "Plant response rating, Wild oat", "setting": "wild oat; POSTEMERGENCE", "value": 75}, {"measurement": "Plant response rating (0 to 100), Wild oat", "setting": "wild oat; POSTEMERGENCE, Rate 2 g/ha", "value": 20}, {"measurement": "Plant response rating, Wild oat", "setting": "wild oat; PREEMERGENCE", "value": 75}, {"measurement": "Plant response rating (0 to 100), Wild oat", "setting": "wild oat; PREEMERGENCE, Rate 2 g/ha", "value": 0}, {"measurement": "Plant response rating (0 to 100), Wild oat", "setting": "wild oat; Rate 8 g/ha, POSTEMERGENCE", "value": 30}, {"measurement": "Plant response rating (0 to 100), Wild oat", "setting": "wild oat; Rate 8 g/ha, PREEMERGENCE", "value": 0}, {"measurement": "Plant response rating (0 to 100), Wild oat", "setting": "wild oat; Rate 31 g/ha, POSTEMERGENCE", "value": 50}, {"measurement": "Plant response rating (0 to 100), Wild oat", "setting": "wild oat; Rate 31 g/ha, PREEMERGENCE", "value": 10}, {"measurement": "Plant response rating, Rape", "setting": "rape; POSTEMERGENCE, Rate 50 g/ha", "value": 9}, {"measurement": "Plant response rating, Rape", "setting": "rape; PREEMERGENCE, Rate 50 g/ha", "value": 5}, {"measurement": "Plant response rating (0 to 10 scale), Rape", "setting": "rape; PREEMERGENCE, Rate 200 g/ha", "value": 5}, {"measurement": "Plant response rating, Rape", "setting": "rape; Rate 200 g/ha, POSTEMERGENCE", "value": 10}, {"measurement": "Plant response rating Downy Brome", "setting": "downy brome; POSTEMERGENCE", "value": 90}, {"measurement": "Plant response rating (0 to 100), Downy Brome", "setting": "downy brome; POSTEMERGENCE, Rate 2 g/ha", "value": 20}, {"measurement": "Plant response rating Downy Brome", "setting": "downy brome; PREEMERGENCE", "value": 70}, {"measurement": "Plant response rating (0 to 100), Downy Brome", "setting": "downy brome; PREEMERGENCE, Rate 2 g/ha", "value": 0}, {"measurement": "Plant response rating (0 to 100), Downy Brome", "setting": "downy brome; Rate 8 g/ha, POSTEMERGENCE", "value": 40}, {"measurement": "Plant response rating (0 to 100), Downy Brome", "setting": "downy brome; Rate 8 g/ha, PREEMERGENCE", "value": 0}, {"measurement": "Plant response rating (0 to 100), Downy Brome", "setting": "downy brome; Rate 31 g/ha, POSTEMERGENCE", "value": 70}, {"measurement": "Plant response rating (0 to 100), Downy Brome", "setting": "downy brome; Rate 31 g/ha, PREEMERGENCE", "value": 30}, {"measurement": "Plant response rating, Corn", "setting": "corn; POSTEMERGENCE", "value": 65}, {"measurement": "Plant response rating (0 to 100), Corn", "setting": "corn; POSTEMERGENCE, Rate 2 g/ha", "value": 40}, {"measurement": "Plant response rating, Corn", "setting": "corn; PREEMERGENCE", "value": 30}, {"measurement": "Plant response rating (0 to 100), Corn", "setting": "corn; PREEMERGENCE, Rate 2 g/ha", "value": 0}, {"measurement": "Plant response rating (0 to 100), Corn", "setting": "corn; Rate 8 g/ha, POSTEMERGENCE", "value": 40}, {"measurement": "Plant response rating (0 to 100), Corn", "setting": "corn; Rate 8 g/ha, PREEMERGENCE", "value": 0}, {"measurement": "Plant response rating (0 to 100), Corn", "setting": "corn; Rate 31 g/ha, POSTEMERGENCE", "value": 50}, {"measurement": "Plant response rating (0 to 100), Corn", "setting": "corn; Rate 31 g/ha, PREEMERGENCE", "value": 0}]}
